# Data taken from ChEMBL document CHEMBL4346712, “Research progress in the biological activities of 3,4,5-trimethoxycinnamic acid (TMCA) derivatives” (Eur J Med Chem, 2019).
# Assays:
# Platelet [1] = experiment: Antiplatelet activity in rabbit platelet rich plasma assessed as inhibition of arachidonic acid-induced platelet aggregation at 150 uM preincubated for 3 mins followed by arachidonic acid addition measured after 10 mins relative to control; format: functional; settings: Oryctolagus cuniculus
# Platelet [2] = experiment: Antiplatelet activity in rabbit platelet rich plasma assessed as inhibition of arachidonic acid-induced platelet aggregation at 300 uM preincubated for 3 mins followed by arachidonic acid addition measured after 10 mins relative to control; format: functional; settings: Oryctolagus cuniculus
# Platelet [3] = experiment: Antiplatelet activity in rabbit platelet rich plasma assessed as inhibition of PAF-induced platelet aggregation at 150 uM preincubated for 3 mins followed by PAF addition measured after 10 mins relative to control; format: functional; settings: Oryctolagus cuniculus
# Platelet [4] = experiment: Antiplatelet activity in rabbit platelet rich plasma assessed as inhibition of collagen-induced platelet aggregation at 150 uM preincubated for 3 mins followed by collagen addition measured after 10 mins relative to control; format: functional; settings: Oryctolagus cuniculus
# Platelet [5] = experiment: Antiplatelet activity in rabbit platelet rich plasma assessed as inhibition of collagen-induced platelet aggregation at 300 uM preincubated for 3 mins followed by collagen addition measured after 10 mins relative to control; format: functional; settings: Oryctolagus cuniculus
# Platelet [6] = experiment: Antiplatelet activity in rabbit platelet rich plasma assessed as inhibition of PAF-induced platelet aggregation at 300 uM preincubated for 3 mins followed by PAF addition measured after 10 mins relative to control; format: functional; settings: Oryctolagus cuniculus
# [7] = Growth inhibition of HUVEC at 5 uM relative to control; format: cell-based; settings: human, HUVEC cells; read-out: GI
# [8] = target: T1, Bifunctional epoxide hydrolase 2 (Homo sapiens) (UniProt P34913); experiment: Competitive inhibition of soluble epoxide hydrolase (unknown origin) at 100 uM relative to control
# T1 sequence (whole entry): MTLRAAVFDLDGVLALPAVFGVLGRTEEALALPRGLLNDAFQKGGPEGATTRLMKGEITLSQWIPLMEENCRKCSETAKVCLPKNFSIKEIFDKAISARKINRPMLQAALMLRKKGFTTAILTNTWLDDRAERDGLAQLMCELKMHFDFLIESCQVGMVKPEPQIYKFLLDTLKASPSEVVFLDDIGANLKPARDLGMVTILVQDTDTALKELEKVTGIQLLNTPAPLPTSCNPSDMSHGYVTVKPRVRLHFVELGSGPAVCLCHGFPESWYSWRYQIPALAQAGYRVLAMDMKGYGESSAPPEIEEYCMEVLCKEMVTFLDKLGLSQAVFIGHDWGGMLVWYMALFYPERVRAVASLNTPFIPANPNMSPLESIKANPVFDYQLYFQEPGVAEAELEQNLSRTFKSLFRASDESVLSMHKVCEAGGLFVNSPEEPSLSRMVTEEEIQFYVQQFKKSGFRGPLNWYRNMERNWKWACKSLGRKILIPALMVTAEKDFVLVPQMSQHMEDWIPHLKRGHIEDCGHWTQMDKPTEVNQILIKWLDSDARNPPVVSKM
# [9] = target: T2, Bifunctional epoxide hydrolase 2 (Homo sapiens, UniProt P34913); experiment: Competitive inhibition of soluble epoxide hydrolase (unknown origin)
# T2 sequence (P34913 whole entry): T1 sequence (whole entry)
# [10] = target: 5-hydroxytryptamine receptor 7 (Homo sapiens, UniProt P34969); experiment: Displacement of [3H]LSD from human 5-HT7 receptor expressed in CHO-K1 cell membranes after 60 mins
# Mus musculus [11] = experiment: Antinarcotic activity in morphine-dependent C57BL/6 mouse assessed as inhibition of naloxone-induced jumping behavior in mouse at 5 mg/kg , ip after 30 mins relative to control; format: functional; settings: C57BL/6, ip, 0.5 h
# [12] = target: Sodium-dependent serotonin transporter (Homo sapiens, UniProt P31645); experiment: Displacement of [3H]Imipramine from human 5-HT transporter expressed in HEK-293 cell membranes after 30 mins
# [13] = target: 5-hydroxytryptamine receptor 6 (Homo sapiens, UniProt P50406); experiment: Displacement of [3H]LSD from human 5-HT6 receptor expressed in CHO-K1 cell membranes after 60 mins
# Nakaseomyces glabratus = experiment: Antifungal activity against Candida glabrata ATCC 90030 after 24 hrs by CLSI broth microdilution method; format: functional, organism-based; settings: ATCC 90030, 24 h
# Platelet [14] = experiment: Antiplatelet activity in rabbit platelet rich plasma assessed as inhibition of thrombin-induced platelet aggregation at 300 uM preincubated for 3 mins followed by thrombin addition measured after 10 mins relative to control; format: functional; settings: Oryctolagus cuniculus
# [15] = Selectivity index, ratio of CC50 for BHK21 cells to IC50 for Candida parapsilosis ATCC 22019; format: toxicity; settings: hamster, read-out: Ratio CC50/IC50
# [16] = Selectivity index, ratio of CC50 for BHK21 cells to IC50 for Staphylococcus aureus ATCC 6538; format: toxicity; settings: hamster, read-out: Ratio CC50/IC50
# Staphylococcus aureus = experiment: Antibacterial activity against Staphylococcus aureus ATCC 6538 after 24 hrs by CLSI broth microdilution method; format: functional, organism-based; settings: ATCC 6538, 24 h
# Candida albicans = experiment: Antifungal activity against Candida albicans ATCC 10231 after 24 hrs by CLSI broth microdilution method; format: functional, organism-based; settings: ATCC 10231, 24 h
# [17] = Selectivity index, ratio of CC50 for BHK21 cells to IC50 for Candida albicans ATCC 10231; format: toxicity; settings: hamster, read-out: Ratio CC50/IC50
# Candida parapsilosis = experiment: Antifungal activity against Candida parapsilosis ATCC 22019 after 24 hrs by CLSI broth microdilution method; format: functional, organism-based; settings: Lodderomyces parapsilosis, ATCC 22019, 24 h
# [18] = Selectivity index, ratio of CC50 for BHK21 cells to IC50 for Candida glabrata ATCC 90030; format: toxicity; settings: hamster, read-out: Ratio CC50/IC50
# [19] = Selectivity index, ratio of CC50 for BHK21 cells to IC50 for Candida krusei ATCC 6258; format: toxicity; settings: hamster, read-out: Ratio CC50/IC50
# [20] = Cytotoxicity against BHK21 cells assessed as reduction in cell viability after 48 hrs by MTT assay; format: cell-based, Mesocricetus auratus, BHK-21; settings: hamster
# Pichia kudriavzevii = experiment: Antifungal activity against Candida krusei ATCC 6258 after 24 hrs by CLSI broth microdilution method; format: functional, organism-based; settings: ATCC 6258, 24 h
# [21] = Antioxidant activity assessed as DPPH radical scavenging activity at 50 ug/ml relative to control; format: functional
# Platelet [22] = experiment: Antiplatelet activity in rabbit platelet rich plasma assessed as inhibition of ADP-induced platelet aggregation at 30 ug/ml relative to control; format: functional; settings: Oryctolagus cuniculus
# Platelet [23] = experiment: Antiplatelet activity in rabbit platelet rich plasma assessed as inhibition of PAF-induced platelet aggregation at 50 ug/ml relative to control; format: functional; settings: Oryctolagus cuniculus
# [24] = target: Platelet-activating factor receptor (Homo sapiens) (UniProt P25105); experiment: Inhibition of PAF receptor (unknown origin) assessed as reduction in receptor to rabbit platelet binding at 20 ug/ml relative to control
# Mus musculus [25] = species: Mus musculus; experiment: Inhibition of HMGB1 in mouse model relative to control; format: functional
# [26] = target: High mobility group protein B1 (Homo sapiens) (UniProt P09429); experiment: Inhibition of HMGB1 (unknown origin) at 10 uM by ELISA relative to control
# [27] = Cytotoxicity against […] B16 cells; format: functional, cell-based
# Sequence of Sodium-dependent serotonin transporter (P31645 whole entry): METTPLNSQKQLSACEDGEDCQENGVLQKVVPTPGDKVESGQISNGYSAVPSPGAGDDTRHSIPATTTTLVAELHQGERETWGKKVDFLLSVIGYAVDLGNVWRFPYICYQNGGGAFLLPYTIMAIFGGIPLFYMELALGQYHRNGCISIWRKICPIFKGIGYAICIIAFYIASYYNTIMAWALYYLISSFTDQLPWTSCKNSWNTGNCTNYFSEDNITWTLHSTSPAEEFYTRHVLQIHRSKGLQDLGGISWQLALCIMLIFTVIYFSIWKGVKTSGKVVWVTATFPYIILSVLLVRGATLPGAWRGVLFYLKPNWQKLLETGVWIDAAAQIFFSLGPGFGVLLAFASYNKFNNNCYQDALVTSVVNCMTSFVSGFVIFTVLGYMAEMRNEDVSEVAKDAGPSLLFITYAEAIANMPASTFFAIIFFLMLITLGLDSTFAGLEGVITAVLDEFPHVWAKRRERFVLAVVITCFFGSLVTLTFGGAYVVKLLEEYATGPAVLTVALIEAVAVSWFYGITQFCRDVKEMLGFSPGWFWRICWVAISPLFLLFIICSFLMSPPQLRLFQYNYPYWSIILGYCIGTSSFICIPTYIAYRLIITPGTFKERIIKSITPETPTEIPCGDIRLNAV
# Sequence of 5-hydroxytryptamine receptor 6 (P50406 whole entry): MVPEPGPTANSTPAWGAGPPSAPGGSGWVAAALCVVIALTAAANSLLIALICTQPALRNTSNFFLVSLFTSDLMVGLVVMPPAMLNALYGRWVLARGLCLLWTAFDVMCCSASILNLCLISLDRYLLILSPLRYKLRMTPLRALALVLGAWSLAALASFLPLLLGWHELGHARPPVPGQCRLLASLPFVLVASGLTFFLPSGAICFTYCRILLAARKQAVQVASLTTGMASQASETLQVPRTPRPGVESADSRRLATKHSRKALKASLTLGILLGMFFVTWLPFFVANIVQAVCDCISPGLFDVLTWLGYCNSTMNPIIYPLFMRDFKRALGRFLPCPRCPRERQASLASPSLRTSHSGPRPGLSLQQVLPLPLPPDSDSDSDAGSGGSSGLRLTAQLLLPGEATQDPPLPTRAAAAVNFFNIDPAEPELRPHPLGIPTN
# Sequence of High mobility group protein B1 (Homo sapiens) (P09429 whole entry): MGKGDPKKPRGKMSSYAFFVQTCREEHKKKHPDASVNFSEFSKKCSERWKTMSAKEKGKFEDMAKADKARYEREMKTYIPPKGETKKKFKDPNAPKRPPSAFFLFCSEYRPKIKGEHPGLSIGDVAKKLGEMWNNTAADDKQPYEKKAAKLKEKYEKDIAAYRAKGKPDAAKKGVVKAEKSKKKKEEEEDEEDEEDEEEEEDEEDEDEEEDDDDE
# Sequence of Platelet-activating factor receptor (Homo sapiens) (P25105 whole entry): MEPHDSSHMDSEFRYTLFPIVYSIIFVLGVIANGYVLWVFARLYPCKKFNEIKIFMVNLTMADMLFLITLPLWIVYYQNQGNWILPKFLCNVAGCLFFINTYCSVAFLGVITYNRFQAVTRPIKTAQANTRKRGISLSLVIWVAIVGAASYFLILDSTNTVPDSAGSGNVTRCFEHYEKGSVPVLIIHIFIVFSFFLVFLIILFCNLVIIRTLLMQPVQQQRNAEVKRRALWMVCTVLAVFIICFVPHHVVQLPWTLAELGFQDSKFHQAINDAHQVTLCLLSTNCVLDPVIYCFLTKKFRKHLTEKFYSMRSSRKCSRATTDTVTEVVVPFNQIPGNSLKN
# Sequence of 5-hydroxytryptamine receptor 7 (P34969 whole entry): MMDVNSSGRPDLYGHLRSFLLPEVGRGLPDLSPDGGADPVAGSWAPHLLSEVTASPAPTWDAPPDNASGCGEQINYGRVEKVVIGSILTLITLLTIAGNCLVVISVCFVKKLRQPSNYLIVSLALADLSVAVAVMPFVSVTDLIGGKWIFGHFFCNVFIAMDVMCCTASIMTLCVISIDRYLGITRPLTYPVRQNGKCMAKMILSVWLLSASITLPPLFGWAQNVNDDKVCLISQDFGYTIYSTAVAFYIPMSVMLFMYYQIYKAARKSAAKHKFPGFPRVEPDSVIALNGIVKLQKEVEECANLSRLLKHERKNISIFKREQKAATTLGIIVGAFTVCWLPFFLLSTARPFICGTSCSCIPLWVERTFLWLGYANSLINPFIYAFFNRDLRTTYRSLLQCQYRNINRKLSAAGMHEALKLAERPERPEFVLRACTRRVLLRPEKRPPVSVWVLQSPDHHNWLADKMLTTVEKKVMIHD
smiles,measurement,setting,value
COc1cc(/C=C/C(=O)N2CC(C)CC(C)C2)cc(OC)c1OC (centres undefined),inhibition at 150 µM,Platelet [1],100%
same,inhibition at 300 µM,Platelet [2],100%
same,inhibition at 150 µM,Platelet [3],56.9%
same,inhibition at 150 µM,Platelet [4],97.2%
same,inhibition at 300 µM,Platelet [5],98.6%
same,inhibition at 300 µM,Platelet [6],94.8%
COc1cc(/C=C/C(=O)Nc2ccc(NC(=O)[C@@H](O)[C@H](N)Cc3ccccc3)cc2)cc(OC)c1OC,inhibition at 5 µM,[7],93%
COc1ccc(C(=O)OC[C@H]2O[C@H](O[C@]3(CO)O[C@H](CO)[C@@H](O)[C@@H]3OC(=O)/C=C/c3cc(OC)c(OC)c(OC)c3)[C@H](O)[C@@H](O)[C@@H]2O)cc1,inhibition,[8],> 100%
same,IC50,[9],6.4 µM
COc1cc(/C=C/C(=O)O[C@H]2[C@H](O)[C@@H](CO)O[C@@]2(CO)O[C@H]2O[C@H](COC(=O)c3ccc(O)cc3)[C@@H](O)[C@H](O)[C@H]2O)cc(OC)c1OC,inhibition,[8],> 100%
same,IC50,[9],9.1 µM
CCCCCCCCCCNC(=O)/C=C/c1cc(OC)c(OC)c(OC)c1,IC50,[10],5.6 µM
same,inhibition in vivo at 5 mg/kg,Mus musculus [11],80%
same,IC50,[12],6.7 µM
same,IC50,[13],5 µM
COc1cc(/C=C/C(=O)OC[C@H]2O[C@H](O[C@@]3(CO)O[C@H](CO)[C@@H](O)[C@@H]3OC(=O)/C=C/c3cc(OC)c(OC)c(OC)c3)[C@H](O)[C@@H](O)[C@@H]2O)cc(OC)c1O,inhibition,[8],97.4%
same,IC50,[9],27.2 µM
COc1cc(/C=C/C(=O)N2CCC=CC2=O)cc(OC)c1OC [PIPLARTINE],IC50,Nakaseomyces glabratus,189 µM
same,inhibition at 300 µM,Platelet [14],23.5%
same,selectivity ratio,[15],0.42
same,selectivity ratio,[16],0.12
same,inhibition at 150 µM,Platelet [1],76.4%
same,IC50,Staphylococcus aureus,315 µM
same,IC50,Candida albicans,94.6 µM
same,selectivity ratio,[17],0.42
same,inhibition at 300 µM,Platelet [2],100%
same,IC50,Candida parapsilosis,94.6 µM
same,inhibition at 150 µM,Platelet [3],100%
same,inhibition at 150 µM,Platelet [4],100%
same,inhibition at 300 µM,Platelet [5],100%
same,selectivity ratio,[18],0.21
same,selectivity ratio,[19],0.21
same,CC50 at 48 h,[20],40.1 µM
same,inhibition at 300 µM,Platelet [6],100%
same,IC50,Pichia kudriavzevii,189 µM
CCCCCCCCNC(=O)/C=C/c1cc(OC)c(OC)c(OC)c1,inhibition in vivo at 5 mg/kg,Mus musculus [11],88%
same,IC50,[12],> 10 µM
COc1ccc(/C=C/COC(=O)/C=C/c2cc(OC)c(OC)c(OC)c2)cc1,inhibition,[21],18.6%
COc1cc(/C=C/C(=O)NCCc2ccc(O)cc2)cc(OC)c1OC,inhibition at 30 µg/mL,Platelet [22],24.4%
same,inhibition at 50 µg/mL,Platelet [23],28.8%
same,inhibition,[24],12%
COc1cc(/C=C/C(=O)Oc2ccc3[nH]c4ccccc4c3c2)cc(OC)c1OC,inhibition (INH),Mus musculus [25],58.9%
same,inhibition,[26],70.2%
COc1cc2oc(=O)cc(COC(=O)/C=C/c3cc(OC)c(OC)c(OC)c3)c2cc1OC,IC50,[27],6.74 µg/mL
